According to patent publication US11453697B1, “Cyclic di-nucleotide compounds as sting agonists” (Merck Sharp & Dohme Corp., priority 2015, dated 2022):

Experiments:
full-length HAQ STING = full-length HAQ STING (Homo sapiens (Human), UniProt Q86WV6, G230A/H232R/R293Q/R71H); test: 3H-cGAMP filtration binding assay (HAQ STING); conditions: competition with tritiated cGAMP, HAQ STING membrane; read-out: EC50 (nM), 3H-cGAMP filtration binding assay for HAQ STING
How it was run: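 Competition binding of compounds against 8 nM [3H]cGAMP working stock on Hi-Five cell membranes overexpressing full-length HAQ STING; compound and membrane preincubated 60 min at RT before ligand addition. Bound radioactivity read by filtration and scintillation counting; percent activity normalized to controls, EC50 from 4-parameter fit.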

[1] = test system: IFN-β secretion in THP1 cells; test: IFN-β secretion in THP1 cell culture (5 h); assay type: cell-based, human; conditions: IFN-β secretion in THP1 cell culture, 5 h; compound at 30 μM; percent activation relative to 2′3′-cGAMP
How it was run: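 THP1 cells incubated with compound for 5 h at 37 °C, 5% CO2, and secreted IFN-β in supernatant quantified by AlphaLISA. Percent effect normalised to 30 uM cGAMP positive control and 0.3% DMSO. EC50 from 4-parameter fit.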

full-length HAQ STING, sequence (Q86WV6 other isoform, or with tags, fused parts or gaps, stated change not applied): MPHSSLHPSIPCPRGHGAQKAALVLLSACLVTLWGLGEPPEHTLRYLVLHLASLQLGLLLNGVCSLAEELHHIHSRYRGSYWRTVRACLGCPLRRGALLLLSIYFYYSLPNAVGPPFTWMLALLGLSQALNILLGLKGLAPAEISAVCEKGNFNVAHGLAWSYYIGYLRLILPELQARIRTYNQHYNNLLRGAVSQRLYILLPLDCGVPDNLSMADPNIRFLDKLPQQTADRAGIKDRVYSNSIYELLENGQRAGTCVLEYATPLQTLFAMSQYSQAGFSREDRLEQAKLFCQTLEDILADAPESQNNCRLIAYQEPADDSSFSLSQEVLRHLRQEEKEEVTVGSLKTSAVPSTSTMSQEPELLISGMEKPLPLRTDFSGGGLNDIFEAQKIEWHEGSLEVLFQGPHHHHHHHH

| EC50 (full-length HAQ STING) [nM] | Compound | % Effect at 30 μM relative to 2′3′-cGAMP [1] [%] |
| --- | --- | --- |
| 6.2 | Nc1nc2c(ncn2[C@@H]2O[C@@H]3COP(=O)(S)O[C@H]4[C@H](F)[C@H](n5cnc6c(=O)[nH]cnc65)O[C@@H]4COP(=O)(S)O[C@@H]2C3)c(=O)[nH]1 (single isomer, unassigned) [Example 318] | 150 |
| 53.9 | C[C@@H]1OP(=O)(O)O[C@@H]2C[C@@H](COP(=O)(O)O[C@H]3[C@@H](O)[C@H](n4cnc5c(N)ncnc54)O[C@H]31)O[C@H]2n1cnc2c(=O)[nH]c(N)nc21 [Example 18, 2-amino-9-[(5S,7R,8R,12S,12aS,14R,15R,15aS)-14-(6-amino-9H-purin-9-yl)-2,10,15-trihydroxy-12-methyl-2,10-dioxidooctahydro-12H-5,8-methanofuro[3,2-l][1,3,6,9,11,2,10]pentaoxadiphosphacyclotetradecin-7-yl]-1,9-dihydro-6H-purin-6-one] | 74 |
| 2320 | Nc1nc2c(ncn2[C@@H]2O[C@@]34CO[C@H]3[C@H]2OP(=O)(O)OC[C@H]2O[C@@H](n3cnc5c(=O)[nH]cnc53)[C@H](O)[C@@H]2OP(=O)(O)OC4)c(=O)[nH]1 [Example 316, 2-amino-9-[(2aR,6aS,7R,8R,9aR,14R,14aS,15R)-5,7,12-trihydroxy-5,12-dioxido-8-(6-oxo-1,6-dihydro-9H-purin-9-yl)hexahydro-6aH,2a,14-(epoxymethano)furo [3,2-d]oxeto[2,3-k][1,3,7,9,2,8]tetraoxadiphosphacyclotridecin-15(2H,3H)-yl]-1,9-dihydro-6H-purin-6-one] | 12 |
| 438 | COCCc1ncnc2c1ncn2[C@@H]1O[C@@H]2COP(=O)(O)O[C@@H]3[C@H](O)[C@@H](COP(=O)(O)O[C@H]2[C@H]1O)O[C@H]3n1cnc2c(=O)[nH]c(N)nc21 [Example 57, 2-amino-9-{(5R,7R,8R,12aR,14R,15R,15aS,16R)-2,10,15,16-tetrahydroxy-14-[6-(2-methoxyethyl)-9H-purin-9-yl]-2,10-dioxidooctahydro-12H-5,8-methanofuro[3,2-l][1,3,6,9,11,2,10]pentaoxadiphosphacyclotetradecin-7-yl}-1,9-dihydro-6H-purin-6-one] | 7 |
| 63.8 | Nc1ncnc2c1ncn2[C@@H]1O[C@@H]2COP(=O)(O)O[C@@H]3[C@H](O)[C@@H](COP(=O)(O)O[C@H]2[C@H]1O)O[C@H]3c1cnc2c(=O)[nH]cnn12 [Example 68, 7-[(5R,7S,8R,12aR,14R,15R,15aS,16R)-14-(6-amino-9H-purin-9-yl)-2,10,15,16-tetrahydroxy-2,10-dioxidooctahydro-12H-5,8-methanofuro [3,2-l][1,3,6,9,11,2,10]pentaoxadiphosphacyclotetradecin-7-yl]imidazo[2,1-f][1,2,4]triazin-4(3H)-one] | 72 |
| 5.8 | Nc1ncnc2c1ncn2[C@@H]1O[C@@H]2COP(=O)(O)O[C@@H]3[C@H](O)[C@@H](COP(=O)(O)O[C@H]2[C@H]1O)O[C@H]3c1n[nH]c2c(=O)[nH]cnc12 [Example 74, 3-[(5R,7S,8R,12aR,14R,15R,15aS,16R)-14-(6-amino-9H-purin-9-yl)-2,10,15,16-tetrahydroxy-2,10-dioxidooctahydro-12H-5,8-methanofuro[3,2-l][1,3,6,9,11,2,10]pentaoxadiphosphacyclotetradecin-7-yl]-1,6-dihydro-7H-pyrazolo[4,3-d]pyrimidin-7-one] | 57 |
| 64.7 | Nc1ncnc2c1ncn2[C@@H]1O[C@@H]2COP(=O)(O)O[C@H]3C[C@H](n4cnc5c(=O)[nH]cnc54)O[C@@H]3COP(=O)(O)O[C@@H]1[C@@H]2O [Example 291, 9-[(5R,7R,8R,12aR,14R,15aS,16R)-7-(6-amino-9H-purin-9-yl)-2,10,16-trihydroxy-2,10-dioxidooctahydro-12H-5,8-methanofuro[3,2-l][1,3,6,9,11,2,10]pentaoxadiphosphacyclotetradecin-14-yl]-1,9-dihydro-6H-purin-6-one] | 98 |
